{
  "source": "patent US20040147006A1",
  "about": "“Peptides that bind to DNA and inhibit DNA replication, and methods of use” (priority 2001, published 2004)",
  "key": {"T-ag helicase ATPase": {"molecular_target": "T1, T-ag helicase ATPase (Simian virus 40, UniProt P03070)", "T1 construct": "made in house", "T1 sequence (P03070 whole entry)": "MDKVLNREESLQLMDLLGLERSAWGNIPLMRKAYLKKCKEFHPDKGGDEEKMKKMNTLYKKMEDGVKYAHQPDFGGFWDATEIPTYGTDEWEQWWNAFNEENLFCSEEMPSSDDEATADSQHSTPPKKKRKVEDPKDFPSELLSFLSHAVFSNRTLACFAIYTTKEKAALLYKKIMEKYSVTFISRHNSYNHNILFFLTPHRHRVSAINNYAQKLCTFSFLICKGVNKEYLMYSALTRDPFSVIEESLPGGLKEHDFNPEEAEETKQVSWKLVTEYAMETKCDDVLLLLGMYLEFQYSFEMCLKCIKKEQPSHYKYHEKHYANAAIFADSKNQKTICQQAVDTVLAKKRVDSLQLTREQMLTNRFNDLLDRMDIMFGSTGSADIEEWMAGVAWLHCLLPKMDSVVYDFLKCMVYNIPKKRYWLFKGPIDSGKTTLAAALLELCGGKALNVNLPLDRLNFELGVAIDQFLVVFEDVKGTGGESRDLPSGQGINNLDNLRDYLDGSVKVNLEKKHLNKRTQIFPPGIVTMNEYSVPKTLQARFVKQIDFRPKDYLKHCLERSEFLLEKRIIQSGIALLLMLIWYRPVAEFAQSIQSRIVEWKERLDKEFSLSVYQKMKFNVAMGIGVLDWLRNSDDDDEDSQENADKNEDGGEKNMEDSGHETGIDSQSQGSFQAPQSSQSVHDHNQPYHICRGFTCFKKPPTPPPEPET", "assay_type": "biochemical, SV40", "details": "duplicate lanes, FIG. 13", "protocol": "A method for measuring ATP hydrolysis involves incubating T-ag with a ^32P-labeled ATP, cross-linking with gluteraldehyde, removing unincorporated nucleotides by passing the reaction products over a Bio-Spin P-30 column, drying the eluate in a Speedvac, resuspending the samples in formic acid, and performing thin layer chromatography on PEI (polyethyleneimine) plates. Using autoradiography, the amount of ATP, ADP and AMP associated with T-ag was determined."}, "[1]": {"system": "64 bp SV40 core origin (SEQ ID NO: 24)", "assay": "Peptide band shift (EMSA without T-ag), core origin", "assay_type": "binding", "details": "for Peptide/DNA complex formation in peptide band shift: SV40 core origin, 13-mer set at 1 mM final concentration (20 nmoles); for DNA binding seen in EMSA without cross-linking: absence of cross-linking with glutaraldehyde", "protocol": "(§1) Electrophoretic mobility shift assays (EMSA). Double stranded oligonucleotides, ^32P labeled at 5′ termini, were prepared using standard procedures (Sambrook, J., et al., 1989, Cold Spring Harbor Laboratory, Cold Spring Harbor, N.Y.; Sreekumar, K. A., et al., 2000, p. 49-67; In, L. Raptis (ed.), Methods in Molecular Biology; SV40 Protocols; Humana Press; Totowa, N.J.). EMSA rections were conducted using conditions for SV40 in vitro replication (Wobbe, C. R., et al., 1985, Proc. Natl. Acad. Sci. USA 82:5710-571 4). The reactions (20 μl) contained 7 mM MgCl2, 0.5 mM DTT, 4 mM AMP-PNP, 40 mM creatine phosphate (pH 7.6), 0.48 μg of creatine phosphate kinase, 5 μg of bovine serum albumin, 0.8 μg of Hae III-digested pBR322 ([…]; used as a nonspecific competitor), about 25 fmol of double stranded oligonucleotide, T-ag and the indicated amounts of peptide. After a 20-min incubation at 37° C., glutaraldehyde (0.1 % final concentration) was added and the reaction products were further incubated for 5 min. The reactions were stopped by the addition of 5 μl of 6× loading dye II (15% Ficoll, 0.25% bromophenol blue, and 0.25% xylene cyanol; Sambrook, J., et al., 1989, Cold Spring Harbor Laboratory, Cold Spring Harbor, N.Y.) to the reaction mixtures. Samples containing T-ag were applied to 3.5 to 12% gradient polyacrylamide gels and electrophoresed in 0.5% Tris-borate-EDTA (TBE) pH 8.4 for about 1.5 h (10 watts).\n[…] Moreover, the samples were loaded on 8% polyacryamide gels and electrophoresed in 0.5% TBE pH 8.4 for about 3h (about 200 volts). The gels were dried on Whatman 3 MM paper, subjected to autoradiography and quantitated using a Molecular Dynamics PhosphorImager (Sunnyvale, Calif.)."}, "[2]": {"system": "double stranded oligonucleotide containing the SV40 core origin (SEQ ID NO: 24)", "assay": "Nitrocellulose filter binding of peptide to DNA", "protocol": "Nitrocellulose filter binding reactions. Assay for the ability of NLS based peptides to bind to DNA were performed using published methods (Sreekumar, K. A., et al., 2000, In, L. Raptis (ed.), Methods in Molecular Biology: SV40 Protocols; Humana Press, Totowa, N.J. p. 49-67). Reactions (20 μl) contained 7 mM MgCl2, 0.5 mM DTT, 4 mM AMP-PNP, 40 mM creatine phosphate (di-Tris salt pH7.7), 0.48 μg of creatine phosphokinase, 0.2 mg of bovine serum albumin per ml, 0.8 μg of Hae III-digested pBR322 DNA, about 25 fmol of a given oligonucleotide (about 10^6 cpm/pmol) and the indicated peptide. After incubation for 20 min at 37° C., the mixtures were filtered under suction through alkali-treated nitrocellulose filters (Millipore type HAWP; pore size, 0.4 μm; stored in 100 mM Tris-HCl, pH7.5). The filters were then washed with 5 ml of 100 mM Tris-HCl, pH 7.5, and were dried and counted in a Beckman LS 3801 scintillation counter."}, "[3]": {"molecular_target": "T2, T-ag oligomerization on 64-bp oligonucleotide containing the SV40 core origin (Simian virus 40, UniProt P03070)", "T2 construct": "made in house", "T2 sequence (P03070 whole entry)": "as above", "assay_type": "biochemical", "details": "T-ag 6 pmol; for Effect on T-ag oligomerization, mutant set (FIG. 11 Panel B): 64-bp SV40 core origin, peptide concentration not given; for Effect on T-ag oligomerization (hexamer and double hexamer formation): peptide final concentration 1 mM (20 nmoles)", "protocol": "as §1"}, "[4]": {"system": "64 bp enhancer control (SEQ ID NO: 29)", "assay": "Peptide band shift (EMSA without T-ag), control oligonucleotide", "assay_type": "binding", "details": "64 bp enhancer control oligonucleotide", "protocol": "as §1\nPeptide based band shift reactions were identical to those described above except that T-ag was omitted from the reactions and the final glutaraldehyde concentration was reduced to 0.05 %. Moreover, the samples were loaded on 8% polyacryamide gels and electrophoresed in 0.5% TBE pH 8.4 for about 3h (about 200 volts). The gels were dried on Whatman 3 MM paper, subjected to autoradiography and quantitated using a Molecular Dynamics PhosphorImager (Sunnyvale, Calif.)."}, "[5]": {"system": "SV40 DNA replication in HeLa human cell crude extracts", "assay": "SV40 in vitro replication reaction", "assay_type": "biochemical", "parameters": "Amount of peptide that completely blocks replication: unit not given here", "details": "for Inhibition of SV40 in vitro DNA replication: 30 μl reactions, with T-ag", "protocol": "DNA replication reactions. SV40 in vitro replication reactions were conducted as described by Wobbe et al 1985, Proc. Natl. Acad. Sci. USA 82:5710-5714 (see also, Bullock, P. A., et al., 1998, p. 223-243. In S. Cotterill (ed.), Eukaryotic DNA Replication; A practical Approach, Oxford University Press, Oxford). Reaction mixtures (30 μl) contained 7 mM MgCl2, 0.5 mM DTT, 4 mM ATP, 40 mM creatine phosphate (di-Tris salt pH7.7), 1.4 μg of creatine phosphokinase, 12.5 μg/ml pSV01ΔEP, dATP, dGTP, and dTTP (100 μM each), CTP, GTP, and UTP (200 μM each), [α-^32p] dCTP (20 μM, about 5 cpm/fmol) and the indicated peptides."}, "single-stranded DNA": {"system": "single-stranded DNA", "assay": "Binding of NLS peptides to single-stranded DNA", "protocol": "(§2) In the examples that follow, peptides were designed and synthesized to contain NLS regions from a variety of viral and human proteins, in particular, T-ag of SV40, and each of the proteins encoded by the human tumor suppressor p53 gene (SEQ ID NO: 1), the E1 protein encoded by bovine papillomavirus (SEQ ID NO: 2), and a set of control peptides. Binding assays of these peptides were performed with a 64 bp oligonucleotide derived from the SV40 core origin (SEQ ID NO: 24). […] Single stranded DNA was bound poorly by p53 and E1 NLS region peptides."}, "double-stranded DNA": {"system": "double-stranded DNA", "assay": "Binding of NLS peptides to double-stranded DNA", "protocol": "as §2"}},
  "note": "Entries after “also recorded” stand apart in the source; their conditions may differ. Read-outs that look alike come from different tables or passages of the source.",
  "data": [
    {"sequence": "ADSQHSTPPKKKR (Virus; Host Macaca mulatta; DOMAIN (1)..(13) Domain of SV40 T-Antigen Protein (118)...(130)) [peptide 213, 13-mer of SV40 T-ag centered on Thr124]", "values": [
      {"measurement": "Effect on ATPase of T-ag", "setting": "T-ag helicase ATPase", "value": "inhibited the ATPase of T-ag"},
      {"measurement": "Peptide/DNA complex formation in peptide band shift", "setting": "[1]", "value": "found to bind to DNA"},
      {"measurement": "Peptide/DNA complex formation in peptide band shift", "setting": "[1]; listed as T-213", "value": "Mobility shifts are seen"},
      {"measurement": "Peptide/DNA complex formation in peptide band shift", "setting": "[1]; listed as peptide T-213", "value": "binds to DNA"},
      {"measurement": "Binding to DNA in filter binding assay", "setting": "[2]; high peptide concentrations (1 mM and 2 mM)", "value": "saturation of binding was observed"},
      {"measurement": "Binding to DNA in filter binding assay", "setting": "[2]; peptide 0.5 mM", "value": "bound relatively poorly"},
      {"measurement": "Binding to DNA in filter binding assay", "setting": "[2]; peptide 0.5 mM to 2 mM, replication conditions, pBR322 competitor", "value": "binds to DNA"},
      {"measurement": "Binding to DNA in filter binding assay", "setting": "[2]; peptide 0.5 mM to 2 mM, replication conditions, pBR322 competitor, listed as peptide T-213", "value": "able to bind to DNA"},
      {"measurement": "Effect on T-ag oligomerization, mutant set (FIG. 11 Panel B)", "setting": "[3]; listed as SEQ ID NO: 3", "value": "complete inhibition of oligomerization"},
      {"measurement": "Effect on T-ag oligomerization, mutant set (FIG. 11 Panel B)", "setting": "[3]; listed as peptide T-213", "value": "inhibited T-ag oligomerization"},
      {"measurement": "Effect on T-ag oligomerization", "setting": "[3]; peptide final concentration 0.5 mM", "value": "inhibited T-ag assembly events"},
      {"measurement": "Effect on T-ag oligomerization (hexamer and double hexamer formation)", "setting": "[3]", "value": "inhibited both hexamer and double hexamer formation"},
      {"measurement": "Effect on T-ag oligomerization (hexamer and double hexamer formation)", "setting": "[3]; listed as peptide T-213", "value": "formation of the standard hexamer and double hexamer protein was inhibited"},
      {"measurement": "Peptide/DNA complex formation in peptide band shift", "setting": "[4]", "value": "bound to the 64 bp enhancer control"},
      {"measurement": "Peptide/DNA complex formation in peptide band shift", "setting": "[4]; listed as peptide T-213", "value": "able to bind to the 64-bp enhancer control"}
    ]},
    {"sequence": "KRKVLGSSQNSSGSEASETPVKRRK [BP-E125]", "values": [
      {"measurement": "Concentration of peptide that completely blocked viral DNA replication", "setting": "[5]", "value": "about 600 μM"},
      {"measurement": "Inhibition of SV40 in vitro DNA replication", "setting": "[5]", "value": "at all concentrations tested inhibited; also recorded: inhibits in vitro DNA replication reactions"},
      {"measurement": "Inhibition of SV40 in vitro DNA replication", "setting": "[5]; listed as SEQ ID NO: 2", "value": "best inhibitor of DNA replication"},
      {"measurement": "Amount of peptide that completely blocks replication", "setting": "[5]; added to a reaction", "value": 20},
      {"measurement": "Effect on ATPase of T-ag", "setting": "T-ag helicase ATPase", "value": "blocked the degradation of ATP by T-ag"},
      {"measurement": "DNA binding seen in EMSA without cross-linking", "setting": "[1]; listed as SEQ ID NO: 2", "value": "does not require cross-linking with glutaraldehyde"},
      {"measurement": "DNA binding seen in EMSA without cross-linking", "setting": "[1]; listed as peptide E1-225", "value": "successful EMSA experiments"},
      {"measurement": "Binding to single-stranded DNA", "setting": "single-stranded DNA", "value": "bound poorly"},
      {"measurement": "Binding to DNA in filter binding assay, E1 peptides", "setting": "[2]; low peptide concentration 0.25 mM", "value": "better DNA binder than peptide 217"},
      {"measurement": "Binding to DNA in filter binding assay, E1 peptides", "setting": "[2]; low peptide concentration 0.25 mM, listed as peptide E1-P225", "value": "binds at a relatively low concentration of peptide"},
      {"measurement": "Binding to DNA in filter binding assay, E1 peptides", "setting": "[2]; peptide 0.25 mM and 0.5 mM", "value": "binds to DNA at a lower concentration than does peptide 217"},
      {"measurement": "Binding to DNA in filter binding assay, E1 peptides", "setting": "[2]; peptide 0.25 mM and 0.5 mM, listed as BP-E1", "value": "bound to DNA"},
      {"measurement": "Binding to DNA in filter binding assay, E1 peptides", "setting": "[2]; peptide 0.25 mM and 0.5 mM, listed as SEQ ID NO: 2", "value": "best DNA binder"},
      {"measurement": "Binding to DNA in filter binding assay, E1 peptides", "setting": "[2]; peptide 0.25 mM and 0.5 mM, listed as peptide E1-P225", "value": "found to bind to DNA"},
      {"measurement": "Binding to double-stranded DNA", "setting": "double-stranded DNA", "value": "bind to double-stranded DNA"}
    ]},
    {"sequence": "TKRALPNNTSSSPQPKKKPL (DOMAIN (1)..(20) Domain of p53 (304)...(323); listed as Homo sapiens) [SEQ ID NO: 1, peptide from the NLS/Cdk region of human p53]", "values": [
      {"measurement": "Binding to single-stranded DNA", "setting": "single-stranded DNA", "value": "bound poorly; also recorded: not single-stranded DNA"},
      {"measurement": "Binding to double-stranded DNA", "setting": "double-stranded DNA", "value": "bind to double-stranded DNA; also recorded: binds to double-stranded"}
    ]}
  ]
}
